In ChEMBL document CHEMBL3228010, “Potential antitumor agents. 29. Quantitative structure-activity relationships for the antileukemic bisquaternary ammonium heterocycles” (J Med Chem, 1979):

Legend:
[1] = tested on: L1210; assay: Antitumor activity against mouse L1210 cells […] in ip dosed C3H X DBA2 F1 hybrid mouse on day 0 and dosed at LD10 level once daily on days 1 to 5 assessed as increase in life span relative to control; format: functional
[2] = organism: Bos taurus; assay: Displacement of ethidium from calf thymus DNA by fluorimetric method
[3] = tested on: Mus musculus; assay: Toxicity in ip dosed C3H X DBA2 F1 hybrid mouse […] with mouse L1210 cells on day 0 and dosed once daily on days 1 to 5 measured after 50 days; format: organism-based; settings: in vivo, 1200 h
[4] = tested on: L1210; assay: Antitumor activity against mouse L1210 cells […] in ip dosed C3H X DBA2 F1 hybrid mouse on day 0 and dosed once daily on days 1 to 5 assessed as increase in life span relative to control; format: functional
[5] = Lipophilic-hydrophilic balance, Rm of the compound by partition chromatography; format: physicochemical
[6] = Displacement of ethidium from poly[d(A-T)]-poly[d(A-T)] DNA by fluorimetric method
[7] = Displacement of ethidium from poly[d(G-C)]-poly[d(G-C)] DNA (unknown origin) by fluorimetric method

SMILES | log(ILSmax) [1] | C50 [2] | LD10 [3] | D40 [4] | Rm [5] | C50 [6] | C50 [7]
C[n+]1ccc(Nc2ccc(C(=O)Nc3ccc(Nc4cc[n+](C)c5ccccc45)cc3)cc2)cc1.Cc1ccc(S(=O)(=O)[O-])cc1.Cc1ccc(S(=O)(=O)[O-])cc1 | 2.29 | 1.6 µM | 7.5 mg/kg | 2.2 mg/kg | 0.27 | 0.21 µM | 3 µM
C[n+]1ccc(Nc2ccc(NC(=O)c3ccc(Nc4c(-c5ccccc5)c[n+](C)c5ccc(N)cc45)cc3)cc2)cc1.[Br-].[Br-] | 1.78 | 0.39 µM | 22 mg/kg | 10 mg/kg | 0.65 | 0.15 µM | 0.63 µM
Cc1cc(Nc2ccc(NC(=O)c3ccc(C(=O)Nc4ccc(Nc5cc(C)[n+](C)c(N)n5)cc4)cc3)cc2)nc(N)[n+]1C.Cc1ccc(S(=O)(=O)[O-])cc1.Cc1ccc(S(=O)(=O)[O-])cc1 | 2.12 | 0.5 µM | 250 mg/kg | 75 mg/kg | -0.71 | 0.4 µM | 0.8 µM
C[n+]1cccc(NC(=O)c2ccc(NC(=O)c3ccc(C(=O)Nc4ccc(NC(=N)N)cc4)cc3)cc2)c1.I.[I-] | 2.18 | 1.38 µM | 8 mg/kg | 0.2 mg/kg | -0.12 | 0.91 µM | 2.07 µM
Cc1cc(Nc2ccc(NC(=O)c3ccc(C(=O)Nc4ccc(C(=O)Nc5ccc[n+](C)c5)cc4)cc3)cc2)nc(N)n1.I.[I-] | 2 | 0.39 µM | 19 mg/kg | 10 mg/kg | -0.3 | 0.27 µM | 0.49 µM
CCCC[n+]1ccc(Nc2ccc(NC(=O)c3ccc(Nc4cc[n+](CCCC)c5ccccc45)cc3)cc2)cc1.[Br-].[Br-] | <1.4 | 2.1 µM | 11 mg/kg | – | 1.14 | 0.19 µM | 2.8 µM
C[n+]1cccc2cc(NC(=O)c3ccc(NC(=O)c4ccc(C(=O)Nc5ccc6c(ccc[n+]6C)c5)cc4)cc3)ccc21.Cc1ccc(S(=O)(=O)[O-])cc1.Cc1ccc(S(=O)(=O)[O-])cc1 | 2.04 | 0.37 µM | 100 mg/kg | 39 mg/kg | -0.7 | 0.28 µM | 0.36 µM
C[n+]1ccc(Nc2ccc(NC(=O)c3ccc(Nc4cc[n+](C)c5ccc(Cl)cc45)cc3)cc2)cc1.Cc1ccc(S(=O)(=O)[O-])cc1.Cc1ccc(S(=O)(=O)[O-])cc1 | 1.81 | 0.79 µM | 40 mg/kg | 14 mg/kg | 0.57 | 0.24 µM | 1.76 µM
C[n+]1cc(-c2ccc(NC(=O)/C=C/c3ccc(C(=O)Nc4ccc(-c5c[n+](C)c(N)nc5N)cc4)cc3)cc2)c(N)nc1N.Cc1ccc(S(=O)(=O)[O-])cc1.Cc1ccc(S(=O)(=O)[O-])cc1 | 2.2 | 0.4 µM | 50 mg/kg | 10.7 mg/kg | -0.62 | 0.11 µM | 0.57 µM
C[n+]1ccc(Nc2ccc(C(=O)Nc3ccc(Nc4c5ccccc5[n+](C)c5cc(N)ccc45)cc3)cc2)cc1.[Cl-].[Cl-] | 2.23 | 0.11 µM | 37 mg/kg | 2 mg/kg | 0.47 | 0.06 µM | 0.16 µM
Br.C/C(=N\NC(=N)N)c1ccc(NC(=O)c2ccc(Nc3cc[n+](C)c4ccc(N)cc34)cc2)cc1.[Br-] | 2.31 | 0.4 µM | 28 mg/kg | 2.1 mg/kg | -0.45 | 0.11 µM | 0.5 µM
C[n+]1cccc(NC(=O)c2ccc(NC(=O)c3cccc(C(=O)Nc4ccc(C(=O)Nc5ccc[n+](C)c5)cc4)c3)cc2)c1.Cc1ccc(S(=O)(=O)[O-])cc1.Cc1ccc(S(=O)(=O)[O-])cc1 | 1.85 | 0.9 µM | 35 mg/kg | 25 mg/kg | 0.2 | 1.2 µM | 1.9 µM
Cc1ccc(S(=O)(=O)[O-])cc1.Cc1ccc(S(=O)(=O)[O-])cc1.Cc1ccc2c(c1)c(Nc1ccc(C(=O)Nc3ccc(Nc4cc[n+](C)cc4)cc3)cc1)cc[n+]2C | 2.17 | 1.05 µM | 15 mg/kg | 1 mg/kg | 0.51 | 0.17 µM | 2.28 µM
CCCCC[n+]1cccc(NC(=O)c2ccc(NC(=O)c3ccc(C(=O)Nc4ccc(C(=O)Nc5ccc[n+](CCCCC)c5)cc4)cc3)cc2)c1.Cc1ccc(S(=O)(=O)[O-])cc1.Cc1ccc(S(=O)(=O)[O-])cc1 | <1.4 | 0.38 µM | 70 mg/kg | – | 0.9 | 0.42 µM | 0.92 µM
CC(=O)Nc1ccc2c(Nc3ccc(NC(=O)c4ccc(Nc5cc[n+](C)cc5)cc4)cc3)cc[n+](C)c2c1.Cc1ccc(S(=O)(=O)[O-])cc1.Cc1ccc(S(=O)(=O)[O-])cc1 | 2.26 | 0.34 µM | 97 mg/kg | 10 mg/kg | -0.1 | 0.13 µM | 0.53 µM
Cc1cc(C(=O)Nc2ccc(C(=O)Nc3ccc[n+](C)c3)cc2)c(C)cc1C(=O)Nc1ccc(C(=O)Nc2ccc[n+](C)c2)cc1.Cc1ccc(S(=O)(=O)[O-])cc1.Cc1ccc(S(=O)(=O)[O-])cc1 | 1.43 | 7.8 µM | 1.7 mg/kg | – | 0.48 | 8.1 µM | 14 µM
Cc1c[n+](C)c2ccccc2c1Nc1ccc(C(=O)Nc2ccc(Nc3cc[n+](C)cc3)cc2)cc1.[Br-].[Br-] | <1.4 | 4.9 µM | 5 mg/kg | – | 0.6 | 4.5 µM | 15 µM
C/C(=C(/C)c1ccc(Nc2cc[n+](C)c3ccc(N)cc23)cc1)c1ccc(Nc2cc[n+](C)cc2)cc1.[Cl-].[Cl-] | 1.53 | 1.7 µM | 5.5 mg/kg | – | 0.96 | 0.9 µM | 2.6 µM
C[n+]1ccc(Nc2ccc(NC(=O)CCCCCC(=O)Nc3ccc(Nc4cc[n+](C)cc4)cc3)cc2)cc1.[Br-].[Br-] | <1.4 | 42 µM | 30 mg/kg | – | 0.49 | 22 µM | 77 µM
C[n+]1ccc(Nc2ccc(NC(=O)CCCCCCC(=O)Nc3ccc(Nc4cc[n+](C)cc4)cc3)cc2)cc1.[Br-].[Br-] | <1.4 | 40 µM | 30 mg/kg | – | 0.59 | 20 µM | 75 µM
C[n+]1ccc(Nc2ccc(C(=O)Nc3ccc(Nc4cc[n+](C)c5ccccc45)cc3N)cc2)cc1.[Br-].[Br-] | <1.4 | 1.87 µM | 7 mg/kg | – | 0.35 | 0.64 µM | 2.05 µM
C[n+]1cccc(NC(=O)c2ccc(NC(=O)c3ccc(C(=O)Nc4ccc(C(=O)Nc5ccc[n+](C)c5)c(Cl)c4)cc3)cc2Cl)c1.Cc1ccc(S(=O)(=O)[O-])cc1.Cc1ccc(S(=O)(=O)[O-])cc1 | <1.4 | 1.4 µM | 26 mg/kg | – | 0.2 | 0.99 µM | 2.1 µM
Cc1cc(Nc2ccc(NC(=O)c3ccc(C(=O)Nc4ccc(C(=O)Nc5ccc[n+](C)c5)cc4)cc3)cc2)nc(N)[n+]1C.[I-].[I-] | <1.4 | 0.4 µM | 20 mg/kg | – | -0.6 | 0.26 µM | 0.49 µM
